# From US10010520B2, “Combined application of isothiocyanate compound and anti-cancer medicine” (JC (WUXI) COMPANY, INC., priority 2013, dated 2018)
# Several values for one entry are separate records, joined by “and”; a condition that tells them apart may be missing. Equal values may be shown once. Read-outs that look alike come from different tables or passages of the source.
# Assays:
# DU145 cells = experiment: CellTiter-Glo cell viability, drugs alone or in combination, DU145 cells; assay type: cell-based, human
# Method: (§1) Cell culture: Androgen-dependent human prostate cancer cells LNCaP, from Shanghai Medicilon Ltd., were placed in a 37° C., 5% CO2 cell incubator, and were cultured in RPMI1640 culture medium with 10% FBS. Androgen-independent human prostate cancer cells DU145, PC-3, from Shanghai Medicilon Ltd., were placed in a 37° C., 5% CO2 cell incubator, and were cultured in F12 culture medium with 10% FBS.
# (§2) isothiocyanates or derivatives thereof and DNA-effecting or influencing anticancer drugs, kinase-inhibiting anticancer drugs or hormonal anticancer drugs for endocrine therapy were administered separately or in combination to cancer cells. Cells were seeded into 384-well plates, and cultured for 24 hours in a CO2 incubator. Drugs were dissolved in DMSO and diluted to 9 concentration-gradients in 96 well plates, and then added to corresponding cells in 384-well plates, in which the concentrations of DMSO in 384 well plates were less than 1%. Triplicate wells were set for each concentration. After administration, the cells were cultured in the CO2 incubator for another 72 hrs, and afterwards, cell viability was tested by using CellTiter-Glo® reagent and luminescence detector. And IC50 values of each administration group were calculated.
# (§3) CI value was calculated by the following formula: CI=(Am)50/(As)50+(Bm)50/(Bs)50,
# (§4) Triplicate wells were set for each co-administration cell well.
# (§5) After administration, cells were cultured in the CO2 incubator for another 72 hrs, and afterwards, cell viability was tested by using CellTiter-Glo® reagent and luminescence detector. Curves were plotted according to concentrations or logarithm concentrations of drug A vs cell inhibition rate in the corresponding cell well, and IC50, i.e. (Am)50 was calculated.
# (§6) 9 concentration gradients of drug A were set (A1, A2, A3, A4, A5, A6, A7, A8, A9), and administrated alone to the corresponding cells in the 384 well plate, and triplicate wells were set for each administration concentration. After administration, the cells were cultured in the CO2 incubator for another 72 hrs, and afterwards, cell viability was tested by using CellTiter-Glo® reagent and luminescence detector. Curves were plotted according to concentration or logarithm concentration of drug A vs the cell inhibition rate in the corresponding cell well, and IC50, i.e. (As)50 was calculated.
# (§7) After administration, the cells were cultured in the CO2 incubator for another 72 hrs, and afterwards, cell viability was tested by using CellTiter-Glo® reagent and luminescence detector.
# LNCaP cells = experiment: CellTiter-Glo cell viability, drugs alone or in combination, LNCaP cells; assay type: cell-based, human; conditions: LNCaP cells, 72 hrs
# Method: as §1, §2, §3, §4, §5, §6, §7
# PC-3 cells = experiment: CellTiter-Glo cell viability, drugs alone or in combination, PC-3 cells; assay type: cell-based; conditions: Homo sapiens, 72 hrs
# Method: as §1
# isothiocyanates or derivatives thereof and DNA-effecting or influencing anticancer drugs, kinase-inhibiting anticancer drugs or hormonal anticancer drugs for endocrine therapy were administered separately or in combination to cancer cells. […] After administration, the cells were cultured in the CO2 incubator for another 72 hrs, and afterwards, cell viability was tested by using CellTiter-Glo® reagent and luminescence detector. And IC50 values of each administration group were calculated.
# CI value was calculated by the following formula: CI=(Am)50/(As)50+(Bm)50/(Bs)50, […]
# as §5, with “calculated. […]” for “calculated.”
# [1] = system: human kidney cancer cells 786-O; experiment: CellTiter-Glo cell viability, drugs alone or in combination, 786-O cells; conditions: 786-0, 72 h, read-out: (As)50, IC50 of drug A when used alone, 786-O cells, 72 hrs
# Saos-2 cells = experiment: CellTiter-Glo cell viability, drugs alone or in combination, Saos-2 cells; assay type: cell-based, human; conditions: Saos-2 cells, 72 hrs
# Method: as §2, §3, §4, §5, §6, §7
# [2] = system: human leukemia HL-60 cells; experiment: CellTiter-Glo cell viability, drugs alone or in combination, HL-60 cells; assay type: cell-based; conditions: read-out: (As)50, IC50 of drug A when used alone
# Method: as §2, §3, §4, §5, §6, §7
# [3] = system: pancreatic cancer cells PANC-1; experiment: CellTiter-Glo cell viability, drugs alone or in combination, PANC-1 cells; assay type: cell-based, human; conditions: PANC-1 cells, 72 hrs
# Method: as §2, §3, §4, §5, §6, §7
# HeLa cells = experiment: CellTiter-Glo cell viability, drugs alone or in combination, HeLa cells; assay type: cell-based, human
# Method: as §2, §3, §4, §5, §6, §7
# [4] = system: Human breast cancer MDA-MB-231 cells; experiment: CellTiter-Glo cell viability, drugs alone or in combination, MDA-MB-231 cells; conditions: 72 hrs
# HT29 cells = experiment: CellTiter-Glo cell viability, drugs alone or in combination, HT29 cells; conditions: Homo sapiens, HT-29, 72 h
# Method: After administration, cells were cultured in the CO2 incubator for another 72 hrs, and afterwards, cell viability was tested by using CellTiter-Glo® reagent and luminescence detector. Curves were plotted according to concentrations or logarithm concentrations of drug A vs cell inhibition rate in the corresponding cell well, and IC50, i.e. (Am)50 was calculated. […]
# U251 cells = experiment: CellTiter-Glo cell viability, drugs alone or in combination, U251 cells; conditions: Homo sapiens, U-251, 72 h, read-out: (As)50, IC50 of drug A when used alone, U251 cells; 72 hrs
# A549 cells = experiment: CellTiter-Glo cell viability, drugs alone or in combination, A549 cells; assay type: cell-based, human
# Method: as §2, §3, §4, §5, §6, §7
# [5] = system: human gastric cancer AGS cells; experiment: CellTiter-Glo cell viability, drugs alone or in combination, AGS cells
# SK-MEL-28 cells = experiment: CellTiter-Glo cell viability, drugs alone or in combination, SK-MEL-28 cells; assay type: cell-based; conditions: Homo sapiens, 72 hrs
# Method: as §2, §3, §4
# as §5, with “calculated. […]” for “calculated.”
# Jurkat E6-1 cells = experiment: CellTiter-Glo cell viability, drugs alone or in combination, Jurkat E6-1 cells; assay type: cell-based, human; conditions: Jurkat E6-1 cells, 72 hrs, read-out: (As)50, IC50 of drug A when used alone
# Method: as §2, §3, §4, §5, §6, §7
# OVCAR-3 cells = experiment: CellTiter-Glo cell viability, drugs alone or in combination, OVCAR-3 cells; conditions: 72 hrs
# [6] = Homo sapiens, DU-145, 72 h, read-out: (Bs)50, IC50 of drug B when used alone
# [7] = Homo sapiens, LNCaP, 72 h, read-out: (Bs)50, IC50 of drug B when used alone
# [8] = read-out: (Bs)50, IC50 of drug B when used alone
# [9] = Homo sapiens, SAOS-2, 72 h, read-out: (As)50, IC50 of drug A when used alone
# [10] = Homo sapiens, PANC-1, 72 h, read-out: (As)50, IC50 of drug A when used alone
# [11] = Homo sapiens, LNCaP, 72 h, read-out: (As)50, IC50 of drug A when used alone
# [12] = Homo sapiens, HeLa, 72 h, read-out: (As)50, IC50 of drug A when used alone
# [13] = Homo sapiens, MDA-MB-231, 72 h, read-out: (As)50, IC50 of drug A when used alone, MDA-MB-231 cells
# [14] = 72 hrs, read-out: (As)50, IC50 of drug A when used alone
# [15] = read-out: (As)50, IC50 of drug A when used alone
# [16] = Homo sapiens, AGS, 72 h, read-out: (Bs)50, IC50 of drug B when used alone, AGS cells
# [17] = Homo sapiens, OVCAR-3, 72 h, read-out: (Bs)50, IC50 of drug B when used alone, OVCAR-3 cells
# [18] = Homo sapiens, A549, 72 h, read-out: (Bs)50, IC50 of drug B when used alone
smiles,measurement,setting,value
"C[C@]12CC[C@H](O)CC1=CC[C@@H]1[C@@H]2CC[C@]2(C)C(c3cccnc3)=CC[C@@H]12 [Abiraterone, abiraterone, reference compound]",IC50,DU145 cells; [6],37.4 µM
same,IC50,LNCaP cells; [7],21.2 µM
same,IC50,PC-3 cells; [8],101 µM
"S=C=NCc1ccccc1 [Benzyl isothiocyanate, benzyl isothiocyanate]",IC50,[1],13.2 µM
same,IC50,Saos-2 cells; [9],14.5 µM
same,IC50,"[2]; Homo sapiens, HL-60, 72 h",11.5 µM
same,IC50,[3]; [10],23.4 µM
same,IC50,LNCaP cells; [11],18.5 µM
same,IC50,HeLa cells; [12],14.7 µM
same,IC50,[4]; [13],11.4 µM
"CC(O)(CS(=O)(=O)c1ccc(F)cc1)C(=O)Nc1ccc(C#N)c(C(F)(F)F)c1 (stereo not drawn) [Bicalutamide, bicalutamide, reference compound]",IC50,DU145 cells; [6],130 µM
same,IC50,LNCaP cells; [7],72.5 µM
same,IC50,LNCaP cells; [8],70 µM
CO[C@H]1C(=O)[C@]2(C)[C@@H](OC)C[C@H]3OC[C@@]3(OC(C)=O)[C@H]2[C@H](OC(=O)c2ccccc2)[C@]2(O)C[C@H](OC(=O)[C@H](O)[C@@H](NC(=O)OC(C)(C)C)c3ccccc3)C(C)=C1C2(C)C [Cabazitaxel],IC50,DU145 cells; [6],0.0265 µM
"Nc1nc2c(c(=O)[nH]1)N(C=O)C(CNc1ccc(C(=O)N[C@@H](CCC(=O)O)C(=O)O)cc1)CN2 (stereo partly drawn) [Leucovorin, reference compound]",IC50,HT29 cells; [8],> 100 µM
S=C=NCCc1ccccc1 [Phenethyl isothiocyanate],IC50,DU145 cells; [14],19.4 µM
same,IC50,[1],16 µM
same,IC50,U251 cells,20.9 µM
same,IC50,Saos-2 cells; [9],20.5 µM
same,IC50,A549 cells; [14],22.3 µM
same,IC50,"A549 cells; Homo sapiens, A549, 72 h, read-out: (As)50, IC50 of drug A when used alone",22 µM
same,IC50,"[5]; Homo sapiens, AGS, 72 h, read-out: (As)50, IC50 of drug A when used alone, AGS cells",14.7 µM
same,IC50,"[5]; read-out: (As)50, IC50 of drug A when used alone, AGS cells, 72 hrs",11.8 µM
same,IC50,SK-MEL-28 cells; [15],32.7 µM
same,IC50,"Jurkat E6-1 cells; Homo sapiens, Jurkat E6.1, 72 h",12.1 µM
same,IC50,Jurkat E6-1 cells,11.6 µM and 12.1 µM and 11.5 µM
same,IC50,[2]; 72 hrs,6.66 µM
same,IC50,"[2]; Homo sapiens, HL-60, 72 h",6.27 µM
same,IC50,[3]; [10],19.6 µM
same,IC50,HT29 cells; [15],29.2 µM
same,IC50,LNCaP cells; [11],20.4 µM
same,IC50,"OVCAR-3 cells; read-out: (As)50, IC50 of drug A when used alone, OVCAR-3 cells",31.8 µM and 9.87 µM
same,IC50,HeLa cells; [12],16.1 µM
same,IC50,[4]; [13],25.1 µM
same,IC50,PC-3 cells; [15],52.6 µM
"CCCS(=O)(=O)Nc1ccc(F)c(C(=O)c2c[nH]c3ncc(-c4ccc(Cl)cc4)cc23)c1F [Vemurafenib, reference compound]",IC50,SK-MEL-28 cells; [8],1.2 µM
"COc1cccc2c1C(=O)c1c(O)c3c(c(O)c1C2=O)C[C@@](O)(C(=O)CO)C[C@@H]3O[C@H]1C[C@H](N)[C@H](O)[C@H](C)O1 [adriamycin, reference compound]",IC50,"Saos-2 cells; Homo sapiens, SAOS-2, 72 h, read-out: (Bs)50, IC50 of drug B when used alone",0.899 µM
same,IC50,Saos-2 cells; [8],0.574 µM
same,IC50,[5]; [16],0.0534 µM
same,IC50,OVCAR-3 cells; [17],1.74 µM
"N.N.[Cl][Pt][Cl] [cisplatin, Cisplatin, reference compound]",IC50,"OVCAR-3 cells; read-out: (Bs)50, IC50 of drug B when used alone, OVCAR-3 cells",20.6 µM
same,IC50,"HeLa cells; 72 hrs, read-out: (Bs)50, IC50 of drug B when used alone",32.8 µM
"CC(=O)O[C@@]12CO[C@@H]1C[C@H](O)[C@@]1(C)C(=O)[C@H](O)C3=C(C)[C@@H](OC(=O)[C@H](O)[C@@H](NC(=O)OC(C)(C)C)c4ccccc4)C[C@@](O)([C@@H](OC(=O)c4ccccc4)[C@H]21)C3(C)C [docetaxel, reference compound]",IC50,[5]; [16],0.00974 µM
same,IC50,"[4]; read-out: (Bs)50, IC50 of drug B when used alone, MDA-MB-231 cells",0.391 µM
"Nc1ccn([C@@H]2O[C@H](CO)[C@@H](O)C2(F)F)c(=O)n1 [gemcitabine, Gemcitabine, reference compound]",IC50,A549 cells; [18],9.54 µM
same,IC50,[3]; [8],32.4 µM
same,IC50,OVCAR-3 cells; [17],89.7 µM
"CN(Cc1cnc2nc(N)nc(N)c2n1)c1ccc(C(=O)N[C@@H](CCC(=O)O)C(=O)O)cc1 [methotrexate, reference compound]",IC50,A549 cells; [18],0.08 µM
